Calls of active or inactive are those of the source.
Experiments:
Escherichia coli = experiment: microbe, parasite or virus in culture
[1] = target: T1, G-protein coupled receptor 35 (Homo sapiens, UniProt Q9HC97); experiment: SAR Analysis for the identification of Selective Antagonists of ERK1/2 Activity in GPR35-Overexpressing U2OS Cells. [Related pubchem assays: 2079, 2058 ]; format: functional, cell-based
[2] = target: G-protein coupled receptor 55 (Homo sapiens, UniProt Q9Y2T6); experiment: blockers of GPR55 signalling, imaged – imaging, image-based, counter-screen for GPR35 antagonist project, SAR follow-up (AID 2397); format: functional
Chain of G-protein coupled receptor 55 (Q9Y2T6 whole entry): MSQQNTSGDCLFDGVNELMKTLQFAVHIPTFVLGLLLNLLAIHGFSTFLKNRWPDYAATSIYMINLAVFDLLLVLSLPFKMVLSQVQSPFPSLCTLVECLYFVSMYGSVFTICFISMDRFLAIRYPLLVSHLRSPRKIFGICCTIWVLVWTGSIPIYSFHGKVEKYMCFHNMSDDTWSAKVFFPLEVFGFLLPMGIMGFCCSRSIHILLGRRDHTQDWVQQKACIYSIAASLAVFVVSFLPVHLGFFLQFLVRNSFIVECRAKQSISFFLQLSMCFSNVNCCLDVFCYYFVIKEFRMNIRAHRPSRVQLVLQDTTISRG

[3] = target: T1, G-protein coupled receptor 35; experiment: inhibition of zaprinast-stimulated GPR35 beta-arrestin translocation – imaging, U2OS, beta-arrestin-GFP, zaprinast agonist, primary screen (AID 2058); format: functional;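 note: antagonist potency meaning inhibition of agonist-induced arrestin redistribution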
[4] = target: Beta-2 adrenergic receptor (Homo sapiens, UniProt P07550); experiment: ADRB2 activation measured by internalization – cell-based, FAP fluorogen, flow cytometry, cherry pick 1, dose response (AID 588763); format: functional
Chain of Beta-2 adrenergic receptor (P07550 whole entry): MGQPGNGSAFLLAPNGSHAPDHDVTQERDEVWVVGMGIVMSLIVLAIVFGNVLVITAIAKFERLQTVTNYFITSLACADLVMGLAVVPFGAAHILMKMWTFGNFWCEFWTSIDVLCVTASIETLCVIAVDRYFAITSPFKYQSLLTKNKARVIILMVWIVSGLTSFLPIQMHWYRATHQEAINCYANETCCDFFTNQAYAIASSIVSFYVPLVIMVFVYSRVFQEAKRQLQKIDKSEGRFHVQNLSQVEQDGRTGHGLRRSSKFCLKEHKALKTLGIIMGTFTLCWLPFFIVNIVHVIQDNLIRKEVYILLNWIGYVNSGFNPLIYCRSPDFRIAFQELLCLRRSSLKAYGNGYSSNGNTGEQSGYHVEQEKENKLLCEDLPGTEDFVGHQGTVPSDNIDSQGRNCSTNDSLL

[5] = target: T2, Sentrin-specific protease 8 (Homo sapiens, UniProt Q96LD8); format: functional;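 note: luminescence read-out of SENP8 inhibition, dose-response confirmation following an ultra-high-throughput screen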
T2 sequence (Q96LD8 whole entry): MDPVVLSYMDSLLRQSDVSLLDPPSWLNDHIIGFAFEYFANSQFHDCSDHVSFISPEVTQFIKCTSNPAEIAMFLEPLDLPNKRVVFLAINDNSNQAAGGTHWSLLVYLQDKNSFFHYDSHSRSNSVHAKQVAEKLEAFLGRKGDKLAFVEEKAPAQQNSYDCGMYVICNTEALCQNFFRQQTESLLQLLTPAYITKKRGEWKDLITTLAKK

Caspase-3 = target: T3, Caspase-3 (Homo sapiens, UniProt P42574); format: functional;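 note: Dose-response selectivity test against caspase-3 for candidate inhibitors of sentrin-specific proteases (SENPs)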
T3 sequence (P42574 whole entry): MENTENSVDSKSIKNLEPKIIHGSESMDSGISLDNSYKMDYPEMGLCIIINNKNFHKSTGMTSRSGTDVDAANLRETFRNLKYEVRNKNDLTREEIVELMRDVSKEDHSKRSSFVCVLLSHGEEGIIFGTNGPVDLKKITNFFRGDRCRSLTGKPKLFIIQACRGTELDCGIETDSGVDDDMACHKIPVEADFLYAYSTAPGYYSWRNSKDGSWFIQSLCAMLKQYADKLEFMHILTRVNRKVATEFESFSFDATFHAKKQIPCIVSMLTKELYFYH

HEK293 [6] = experiment: cells; conditions: Homo sapiens
[7] = target: T4, Sentrin-specific protease 7 (Homo sapiens, UniProt Q9BQF6); format: functional;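 note: Luminescence-based dose-response confirmation of ultra-high-throughput screening hits, measuring inhibition of SENP7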
T4 sequence (Q9BQF6 whole entry): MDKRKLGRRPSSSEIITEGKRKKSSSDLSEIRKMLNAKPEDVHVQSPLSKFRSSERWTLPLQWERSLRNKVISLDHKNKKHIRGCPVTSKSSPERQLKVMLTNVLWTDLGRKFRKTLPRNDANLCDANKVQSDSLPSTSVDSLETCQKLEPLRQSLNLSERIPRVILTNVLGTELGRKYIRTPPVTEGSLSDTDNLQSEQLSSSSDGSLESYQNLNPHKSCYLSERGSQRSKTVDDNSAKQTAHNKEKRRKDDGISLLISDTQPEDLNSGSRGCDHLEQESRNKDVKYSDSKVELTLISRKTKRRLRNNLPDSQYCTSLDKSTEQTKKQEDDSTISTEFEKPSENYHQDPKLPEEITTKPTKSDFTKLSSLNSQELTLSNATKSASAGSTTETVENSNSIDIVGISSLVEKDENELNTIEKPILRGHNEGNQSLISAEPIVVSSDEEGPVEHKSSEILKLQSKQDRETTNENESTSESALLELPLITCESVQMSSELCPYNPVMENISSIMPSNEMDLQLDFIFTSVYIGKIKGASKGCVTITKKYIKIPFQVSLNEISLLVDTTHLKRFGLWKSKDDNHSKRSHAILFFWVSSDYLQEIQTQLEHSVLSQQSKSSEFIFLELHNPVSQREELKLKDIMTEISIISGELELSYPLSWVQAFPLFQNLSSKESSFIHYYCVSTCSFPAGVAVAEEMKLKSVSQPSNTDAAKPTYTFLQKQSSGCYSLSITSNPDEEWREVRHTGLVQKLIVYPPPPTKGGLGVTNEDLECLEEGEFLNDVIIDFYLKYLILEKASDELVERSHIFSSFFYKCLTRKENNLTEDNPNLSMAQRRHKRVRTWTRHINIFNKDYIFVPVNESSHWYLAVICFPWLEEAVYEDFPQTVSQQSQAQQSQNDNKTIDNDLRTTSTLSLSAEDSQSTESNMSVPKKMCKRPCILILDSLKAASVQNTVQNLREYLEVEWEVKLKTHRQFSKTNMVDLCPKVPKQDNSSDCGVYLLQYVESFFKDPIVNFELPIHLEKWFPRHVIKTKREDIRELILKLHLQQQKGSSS

HEK293 [8] = experiment: cells; conditions: Homo sapiens; remark: listed apart in the source
[9] = target: T5, Sentrin-specific protease 6 (Homo sapiens, UniProt Q9GZR1); format: functional;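 note: Luminescence-based dose-response confirmatory assay of SENP6 inhibition, following up an ultra-high-throughput screen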
T5 sequence (Q9GZR1 whole entry): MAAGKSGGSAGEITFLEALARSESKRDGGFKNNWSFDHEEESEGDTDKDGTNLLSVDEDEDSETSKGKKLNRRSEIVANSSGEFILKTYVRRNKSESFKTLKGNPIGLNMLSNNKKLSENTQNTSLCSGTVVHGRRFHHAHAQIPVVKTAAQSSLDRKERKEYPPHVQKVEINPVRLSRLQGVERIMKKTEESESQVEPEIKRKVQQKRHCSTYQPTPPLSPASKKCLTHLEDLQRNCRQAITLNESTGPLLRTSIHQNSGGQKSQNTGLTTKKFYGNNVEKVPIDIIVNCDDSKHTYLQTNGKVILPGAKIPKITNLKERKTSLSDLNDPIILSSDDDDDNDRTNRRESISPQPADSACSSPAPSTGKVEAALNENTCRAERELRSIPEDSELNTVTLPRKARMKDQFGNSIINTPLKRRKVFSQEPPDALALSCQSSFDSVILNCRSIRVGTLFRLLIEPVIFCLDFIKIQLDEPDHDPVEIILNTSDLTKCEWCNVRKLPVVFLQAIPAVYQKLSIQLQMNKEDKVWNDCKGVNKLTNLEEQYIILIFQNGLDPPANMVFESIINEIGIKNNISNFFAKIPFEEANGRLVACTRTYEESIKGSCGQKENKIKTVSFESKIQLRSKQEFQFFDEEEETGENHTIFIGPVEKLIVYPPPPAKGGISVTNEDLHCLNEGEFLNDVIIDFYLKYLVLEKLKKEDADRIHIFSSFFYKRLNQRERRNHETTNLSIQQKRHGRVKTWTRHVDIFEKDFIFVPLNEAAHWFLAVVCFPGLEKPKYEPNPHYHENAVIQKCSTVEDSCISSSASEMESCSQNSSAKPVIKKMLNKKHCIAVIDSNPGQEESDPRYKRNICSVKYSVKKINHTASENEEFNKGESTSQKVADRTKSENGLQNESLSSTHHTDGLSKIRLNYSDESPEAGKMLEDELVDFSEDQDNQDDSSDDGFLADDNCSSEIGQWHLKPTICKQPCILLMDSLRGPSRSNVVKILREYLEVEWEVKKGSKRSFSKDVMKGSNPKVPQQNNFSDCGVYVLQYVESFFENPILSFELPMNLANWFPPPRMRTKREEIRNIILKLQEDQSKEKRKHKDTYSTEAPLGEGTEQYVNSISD

Hexokinase HKDC1 = target: T6, Hexokinase HKDC1 (Homo sapiens, UniProt Q2TB90); experiment: SAR analysis of small molecule inhibitors of hexokinase domain containing I (HKDC1). [Related pubchem assays (depositor defined):AID493160, AID493190]; format: functional
T6 sequence (Q2TB90 whole entry): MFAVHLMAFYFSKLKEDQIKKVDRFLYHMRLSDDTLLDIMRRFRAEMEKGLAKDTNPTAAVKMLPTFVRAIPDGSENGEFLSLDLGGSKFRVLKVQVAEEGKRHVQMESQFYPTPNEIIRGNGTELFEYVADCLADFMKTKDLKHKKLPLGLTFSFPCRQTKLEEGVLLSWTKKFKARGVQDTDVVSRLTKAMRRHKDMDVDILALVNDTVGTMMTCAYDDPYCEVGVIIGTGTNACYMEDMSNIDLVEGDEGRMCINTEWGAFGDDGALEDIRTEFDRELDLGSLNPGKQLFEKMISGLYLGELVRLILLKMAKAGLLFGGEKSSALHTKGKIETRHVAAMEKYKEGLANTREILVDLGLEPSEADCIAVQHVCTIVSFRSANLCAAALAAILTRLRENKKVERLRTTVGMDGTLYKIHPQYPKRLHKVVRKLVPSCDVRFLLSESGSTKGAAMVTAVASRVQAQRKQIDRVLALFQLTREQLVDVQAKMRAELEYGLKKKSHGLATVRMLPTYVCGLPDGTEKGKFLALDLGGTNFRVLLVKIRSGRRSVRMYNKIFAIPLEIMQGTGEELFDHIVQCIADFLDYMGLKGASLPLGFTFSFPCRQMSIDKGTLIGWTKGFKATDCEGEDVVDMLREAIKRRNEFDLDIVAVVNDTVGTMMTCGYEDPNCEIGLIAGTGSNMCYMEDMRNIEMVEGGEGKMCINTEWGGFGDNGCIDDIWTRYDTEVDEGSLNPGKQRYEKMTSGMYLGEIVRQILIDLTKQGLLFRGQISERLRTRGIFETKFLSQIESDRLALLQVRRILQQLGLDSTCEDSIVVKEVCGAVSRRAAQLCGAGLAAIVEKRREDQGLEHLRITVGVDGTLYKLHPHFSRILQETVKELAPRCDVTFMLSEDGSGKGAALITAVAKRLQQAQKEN

Hexokinase-1 = Hexokinase-1 (Homo sapiens, UniProt P19367); experiment: SAR analysis of small molecule inhibitors of hexokinase domain containing I (HKDC1) in the hexokinase 1 selectivity assay. [Related pubchem assays (depositor defined):AID493160, AID493190]; format: functional
Chain of Hexokinase-1 (P19367 whole entry, the tested form may be a part): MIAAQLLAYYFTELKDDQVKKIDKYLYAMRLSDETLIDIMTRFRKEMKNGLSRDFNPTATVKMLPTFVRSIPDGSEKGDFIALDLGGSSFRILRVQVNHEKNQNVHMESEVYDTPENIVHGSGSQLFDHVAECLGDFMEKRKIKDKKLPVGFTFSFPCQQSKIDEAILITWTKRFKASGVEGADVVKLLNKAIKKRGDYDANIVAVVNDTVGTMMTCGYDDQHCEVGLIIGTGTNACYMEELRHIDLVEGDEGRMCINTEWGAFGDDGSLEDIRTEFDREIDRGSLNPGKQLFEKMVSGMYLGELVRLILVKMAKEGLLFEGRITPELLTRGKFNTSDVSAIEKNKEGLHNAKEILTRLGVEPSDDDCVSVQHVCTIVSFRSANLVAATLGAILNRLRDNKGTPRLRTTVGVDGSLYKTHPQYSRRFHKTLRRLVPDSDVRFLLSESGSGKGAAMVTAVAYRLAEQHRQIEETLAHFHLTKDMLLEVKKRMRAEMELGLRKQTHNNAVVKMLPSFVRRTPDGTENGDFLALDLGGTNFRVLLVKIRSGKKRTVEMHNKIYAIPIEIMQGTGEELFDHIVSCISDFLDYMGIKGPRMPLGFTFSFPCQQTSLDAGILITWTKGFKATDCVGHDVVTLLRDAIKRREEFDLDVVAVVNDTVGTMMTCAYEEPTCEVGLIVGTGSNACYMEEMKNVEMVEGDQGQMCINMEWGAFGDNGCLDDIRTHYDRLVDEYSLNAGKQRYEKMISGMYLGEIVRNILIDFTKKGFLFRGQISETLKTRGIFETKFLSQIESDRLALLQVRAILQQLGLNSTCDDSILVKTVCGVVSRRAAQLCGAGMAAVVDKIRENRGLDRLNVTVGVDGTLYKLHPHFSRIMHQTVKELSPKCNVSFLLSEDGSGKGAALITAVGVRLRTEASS

[10] = target: T7, Short transient receptor potential channel 4 (Mus musculus, UniProt Q9QUQ5); experiment: potency of mouse TRPC4 calcium flux blockers – cell-based, HEK293 TRPC4/mu-opioid, DAMGO stimulus, Fluo-4, dose response (AID 492994); format: functional
T7 sequence (Q9QUQ5 whole entry): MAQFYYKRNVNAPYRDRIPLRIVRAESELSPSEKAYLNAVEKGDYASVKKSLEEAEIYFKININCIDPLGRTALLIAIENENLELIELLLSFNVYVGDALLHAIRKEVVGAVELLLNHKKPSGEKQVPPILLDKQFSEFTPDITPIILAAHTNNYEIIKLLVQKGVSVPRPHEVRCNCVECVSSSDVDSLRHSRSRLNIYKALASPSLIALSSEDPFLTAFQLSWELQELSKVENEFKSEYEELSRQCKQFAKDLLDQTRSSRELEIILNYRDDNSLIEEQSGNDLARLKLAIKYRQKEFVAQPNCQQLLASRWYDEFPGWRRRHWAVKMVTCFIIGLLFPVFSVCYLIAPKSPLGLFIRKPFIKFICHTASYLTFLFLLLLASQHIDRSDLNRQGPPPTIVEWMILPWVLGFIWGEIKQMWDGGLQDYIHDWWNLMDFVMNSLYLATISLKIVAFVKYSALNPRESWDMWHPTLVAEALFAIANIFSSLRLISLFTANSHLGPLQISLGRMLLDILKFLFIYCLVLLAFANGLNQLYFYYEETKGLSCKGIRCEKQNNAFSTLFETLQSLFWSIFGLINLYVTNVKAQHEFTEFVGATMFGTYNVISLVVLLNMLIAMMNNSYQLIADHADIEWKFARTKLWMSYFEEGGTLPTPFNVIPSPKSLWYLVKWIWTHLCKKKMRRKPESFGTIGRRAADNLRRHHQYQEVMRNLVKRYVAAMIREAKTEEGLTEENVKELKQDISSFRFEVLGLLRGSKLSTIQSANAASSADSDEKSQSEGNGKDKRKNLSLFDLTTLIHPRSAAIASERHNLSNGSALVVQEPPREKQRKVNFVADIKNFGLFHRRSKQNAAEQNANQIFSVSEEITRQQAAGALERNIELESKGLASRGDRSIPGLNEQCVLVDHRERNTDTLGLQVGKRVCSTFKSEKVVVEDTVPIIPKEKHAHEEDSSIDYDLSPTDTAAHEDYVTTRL

[11] = target: Short transient receptor potential channel 6 (Mus musculus, UniProt Q61143); experiment: mouse TRPC6 channel blockers, concentration series – HEK293 cells, membrane potential dye, IC50, selectivity assay for selective TRPC4 inhibitor project, dose response (AID 492987); format: functional, cell-based
Chain of Short transient receptor potential channel 6 (Q61143 whole entry): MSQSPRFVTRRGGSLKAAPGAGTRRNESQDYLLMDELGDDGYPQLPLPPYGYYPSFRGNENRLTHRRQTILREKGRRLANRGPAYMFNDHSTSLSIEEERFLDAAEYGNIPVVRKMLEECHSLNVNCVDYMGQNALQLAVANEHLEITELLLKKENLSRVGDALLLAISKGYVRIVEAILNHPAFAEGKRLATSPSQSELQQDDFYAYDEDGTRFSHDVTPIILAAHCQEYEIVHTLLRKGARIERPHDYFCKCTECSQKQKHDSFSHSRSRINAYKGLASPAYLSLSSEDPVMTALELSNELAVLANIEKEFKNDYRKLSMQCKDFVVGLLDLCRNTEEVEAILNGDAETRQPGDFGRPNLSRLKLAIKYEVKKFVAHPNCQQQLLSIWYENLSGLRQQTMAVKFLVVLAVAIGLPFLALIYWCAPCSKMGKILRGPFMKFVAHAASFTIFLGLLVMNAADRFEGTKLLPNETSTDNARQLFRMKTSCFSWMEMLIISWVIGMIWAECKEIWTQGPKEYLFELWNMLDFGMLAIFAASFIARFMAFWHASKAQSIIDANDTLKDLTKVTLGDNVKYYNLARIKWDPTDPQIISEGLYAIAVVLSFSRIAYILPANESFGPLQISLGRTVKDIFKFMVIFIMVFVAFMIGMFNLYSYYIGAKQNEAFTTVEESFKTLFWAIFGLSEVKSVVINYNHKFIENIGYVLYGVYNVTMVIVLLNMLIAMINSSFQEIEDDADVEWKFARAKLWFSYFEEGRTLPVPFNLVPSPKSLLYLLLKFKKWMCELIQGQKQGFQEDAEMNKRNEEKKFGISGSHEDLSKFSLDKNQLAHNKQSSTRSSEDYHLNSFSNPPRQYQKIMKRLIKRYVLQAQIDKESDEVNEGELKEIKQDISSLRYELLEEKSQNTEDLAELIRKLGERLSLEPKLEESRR

Phospholipase D1 = Phospholipase D1 (Homo sapiens, UniProt Q13393); experiment: cellular phospholipase D1 inhibition IC50 – cell-based, dose response (AID 602151); format: functional;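 note: cellular PLD1 assay in Calu-1 cells stimulated with PMA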
Chain of Phospholipase D1 (Q13393 whole entry): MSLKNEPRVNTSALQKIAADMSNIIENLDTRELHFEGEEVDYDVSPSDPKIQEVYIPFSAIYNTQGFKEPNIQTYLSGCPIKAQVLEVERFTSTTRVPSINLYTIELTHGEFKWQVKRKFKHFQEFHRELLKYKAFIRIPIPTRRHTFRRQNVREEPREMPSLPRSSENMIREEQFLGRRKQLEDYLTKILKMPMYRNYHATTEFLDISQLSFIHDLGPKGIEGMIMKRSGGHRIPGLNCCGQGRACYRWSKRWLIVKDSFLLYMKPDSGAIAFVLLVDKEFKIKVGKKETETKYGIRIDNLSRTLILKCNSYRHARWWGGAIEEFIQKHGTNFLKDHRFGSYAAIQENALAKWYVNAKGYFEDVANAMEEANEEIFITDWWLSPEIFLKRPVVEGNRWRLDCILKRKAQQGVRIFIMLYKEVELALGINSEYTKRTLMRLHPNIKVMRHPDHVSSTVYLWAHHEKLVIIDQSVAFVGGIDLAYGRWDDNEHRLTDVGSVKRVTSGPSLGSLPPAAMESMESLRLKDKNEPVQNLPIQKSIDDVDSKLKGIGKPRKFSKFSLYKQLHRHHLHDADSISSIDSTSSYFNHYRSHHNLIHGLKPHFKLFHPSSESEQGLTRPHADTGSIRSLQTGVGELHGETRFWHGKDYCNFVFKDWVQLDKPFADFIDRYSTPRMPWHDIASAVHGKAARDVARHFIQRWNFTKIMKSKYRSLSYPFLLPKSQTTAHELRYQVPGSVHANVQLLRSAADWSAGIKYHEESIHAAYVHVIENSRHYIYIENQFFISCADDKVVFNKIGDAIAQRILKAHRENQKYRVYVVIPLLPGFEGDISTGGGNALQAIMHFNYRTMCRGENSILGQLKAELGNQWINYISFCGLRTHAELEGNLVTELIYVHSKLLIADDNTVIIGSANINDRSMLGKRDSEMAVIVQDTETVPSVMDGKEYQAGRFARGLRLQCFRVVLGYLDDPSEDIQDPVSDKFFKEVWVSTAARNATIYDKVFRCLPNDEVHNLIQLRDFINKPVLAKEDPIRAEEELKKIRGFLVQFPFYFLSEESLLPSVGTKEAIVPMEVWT

Phospholipase D2 = Phospholipase D2 (Homo sapiens, UniProt O14939); experiment: cellular phospholipase D2 inhibition IC50 – cell-based, dose response (AID 602147); format: functional;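 note: cellular assay in HEK293 cells overexpressing GFP-tagged PLD2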
Chain of Phospholipase D2 (O14939 whole entry): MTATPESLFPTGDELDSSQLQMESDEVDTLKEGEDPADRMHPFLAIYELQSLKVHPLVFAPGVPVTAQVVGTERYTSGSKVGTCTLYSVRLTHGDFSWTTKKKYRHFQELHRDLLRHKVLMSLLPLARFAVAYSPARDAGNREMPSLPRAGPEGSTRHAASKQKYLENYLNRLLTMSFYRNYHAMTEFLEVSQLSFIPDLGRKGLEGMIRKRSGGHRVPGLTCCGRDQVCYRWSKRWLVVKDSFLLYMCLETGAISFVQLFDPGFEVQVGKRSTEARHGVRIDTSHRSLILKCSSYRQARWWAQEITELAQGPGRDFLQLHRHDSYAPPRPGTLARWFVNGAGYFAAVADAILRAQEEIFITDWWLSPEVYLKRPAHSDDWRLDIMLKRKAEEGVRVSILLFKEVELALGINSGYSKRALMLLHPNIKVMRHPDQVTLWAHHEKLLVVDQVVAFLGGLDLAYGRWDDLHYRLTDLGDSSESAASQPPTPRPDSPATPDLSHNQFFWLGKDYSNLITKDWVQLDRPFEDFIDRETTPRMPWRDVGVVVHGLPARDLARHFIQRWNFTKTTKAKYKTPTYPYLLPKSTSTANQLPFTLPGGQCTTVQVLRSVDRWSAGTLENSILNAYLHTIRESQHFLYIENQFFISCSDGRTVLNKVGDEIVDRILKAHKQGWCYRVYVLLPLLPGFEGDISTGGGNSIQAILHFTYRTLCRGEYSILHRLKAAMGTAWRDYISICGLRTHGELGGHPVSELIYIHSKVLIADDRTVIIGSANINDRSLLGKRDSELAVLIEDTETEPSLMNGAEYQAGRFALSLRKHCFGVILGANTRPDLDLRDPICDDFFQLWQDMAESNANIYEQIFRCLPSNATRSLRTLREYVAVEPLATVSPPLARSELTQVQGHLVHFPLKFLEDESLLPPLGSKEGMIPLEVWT

T1 sequence (Q9HC97 whole entry): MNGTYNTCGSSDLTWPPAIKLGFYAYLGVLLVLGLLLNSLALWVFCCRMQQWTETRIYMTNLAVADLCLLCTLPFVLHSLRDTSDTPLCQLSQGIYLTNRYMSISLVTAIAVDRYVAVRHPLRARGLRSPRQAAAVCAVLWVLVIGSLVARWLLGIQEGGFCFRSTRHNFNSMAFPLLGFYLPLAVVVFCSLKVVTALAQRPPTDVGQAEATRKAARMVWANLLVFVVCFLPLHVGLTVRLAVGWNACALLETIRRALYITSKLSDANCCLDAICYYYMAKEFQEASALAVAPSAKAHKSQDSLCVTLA

## CCOC(=O)c1cc(C)sc1NC(=O)C(c1ccccc1)c1ccccc1
Escherichia coli
  AC50: 123 µM (active)

## O=C(Nc1ccc2nc(SCc3ccc(Cl)cc3)sc2c1)c1ccccc1C(=O)N1CCOCC1
[1]
  IC50: 16.5 µM (not active)
[2]
  IC50: > 32 µM (inactive)
[3]
  IC50: 0.768 µM (active)
[4]
  EC50: 1.74 µM (active)

## COc1cc(C#Cc2ccc3cc(CCCO)oc(=O)c3c2)cc(OC)c1
[5]
  IC50: 10.6 µM (active)
Caspase-3
  IC50: 21 µM (active)
HEK293 [6]
  EC50: > 59.6 µM (inactive)
[7]
  IC50: 2.81 µM (active)
HEK293 [8]
  EC50: > 59.6 µM (inactive)
[9]
  IC50: 7.16 µM (active)

## O=c1c2ccccc2nc(/C=C/c2cccc(Br)c2)n1Cc1ccccc1
Hexokinase HKDC1
  IC50: > 80 µM (inactive)
Hexokinase-1
  IC50: > 80 µM (inactive)

## Cc1cc(N2CCC(N3CCOCC3)CC2)nc2ccccc12
[10]
  IC50: 31.9 µM (active)
[11]
  IC50: 16.9 µM (active)

## O=C(NCCN1CCC2(CC1)C(=O)NCN2c1cccc(F)c1)c1ccc(F)nc1
Phospholipase D1
  IC50: 17 µM (active)
Phospholipase D2
  IC50: 0.385 µM (active)

Source: ChEMBL document CHEMBL1201862, “PubChem BioAssay data set” (2004)
